Experimental findings from patent US11236085B2, “PD-1/PD-L1 inhibitors” (Gilead Sciences, Inc., priority 2018, dated 2022) are described below.

Usually EC50 stands for the concentration needed to bring the measured effect to its halfway point. Read a low EC50 as higher potency in that assay. One may read the AC50 as the concentration at which the activity in the assay is half-maximal. The IC50 is the point on the concentration scale where inhibition reaches its midpoint.

For test [1], the target named is T1, PD-1/PD-L1 (Homo sapiens, UniProt Q9NZQ7). Put plainly: PD-1/PD-L1 NFAT reporter assay (co-culture of aAPC-PD-L1 CHO cells and Jurkat cells overexpressing PD-1, NFAT luciferase). Type of test: cell-based. Set-up: expressed in transfected cells; host or cells: CHO cells (aAPC-PD-L1) co-cultured with Jurkat cells overexpressing PD-1. As to conditions: co-culture incubated for 6 hrs at 37° C.; luciferase under NFAT control. Here is the method:
PD-1/PD-L1 NFAT Reporter Assay
Compounds were tested in a functional co-culture reporter assay in which TCR-mediated NFAT activity is inhibited by the engagement of PD-1 with PD-L1. […] CHO cells expressing surface-bound anti-CD3 antibodies and PD-L1 (artificial antigen presenting cells, aAPC-PD-L1) were first seeded overnight. Jurkat cells overexpressing PD-1 and expressing a luciferase construct under NFAT control are diluted in RPMI assay medium (RPMI 1640 with 2% FBS), mixed with compounds, and immediately seeded on the monolayer of aAPC-PD-L1. The co-culture is then incubated for 6 hrs at 37° C. Luciferase activity is assessed by adding the ONE-Glo reagent and measuring luminescence with a plate reader. EC50 values are calculated from the fit of the dose-response curves to a four-parameter equation (Table 4).
Target sequence in this assay (Q9NZQ7 19-290): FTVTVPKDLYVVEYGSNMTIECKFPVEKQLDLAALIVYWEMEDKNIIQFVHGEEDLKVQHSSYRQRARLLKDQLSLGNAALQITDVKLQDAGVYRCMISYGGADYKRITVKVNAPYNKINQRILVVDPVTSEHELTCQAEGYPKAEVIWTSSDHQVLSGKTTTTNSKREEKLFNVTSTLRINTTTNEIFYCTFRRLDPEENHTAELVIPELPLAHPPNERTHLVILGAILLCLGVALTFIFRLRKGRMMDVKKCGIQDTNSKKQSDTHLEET

The target in another test is T2, PD-L1 (Homo sapiens, UniProt Q9NZQ7).
T2 construct: determine if they can specifically dimerize the extracellular domains of PD-L1
Put plainly: PD-L1/PD-L1 dimerization biochemical protein-protein interaction assay (ALPHA). As to conditions: 0.5 nM His tagged PD-L1 and 0.5 nM FLAG tagged PD-L1; compound induced dimerization; read-out: AC50 PDL1 Dimer 1 nM. On the procedure: PD-L1/PD-L1 Dimerization Biochemical Protein-Protein Interaction Assay
Compounds were tested in biochemical protein-protein interaction assays to determine if they can specifically dimerize the extracellular domains of PD-L1. Dimerization of the proteins (His-tagged PD-L1 and FLAG-tagged PD-L1) is measured using a bead based Amplified Luminescent Proximity Homogeneous Assay (ALPHA) platform. […] Assays are performed in 25 mM Hepes (pH 7.4), 150 mM NaCl, 3.4 mM EDTA, 0.005% Tween 20, and 0.01% BSA. Final protein concentration in the assays were 0.5 nM (His tagged PD-L1) and 0.5 nM (FLAG tagged PD-L1). After an assay reaction time of 2 hours at 25° C., 20 μg/mL (final assay concentration) ALPHA assay acceptor beads (anti-His coated) were added and incubated for 60 minutes at 25° C. Binding was measured following a final 60 minute incubation with 40 μg/mL (final assay concentration) ALPHA assay donor beads (anti-FLAG coated). AC50 values were calculated from the fit of the dose-response curves to a four-parameter equation (Table 4).

The target of test [2] is T1, PD-1/PD-L1. Put plainly: PD-1/PD-L1 biochemical protein-protein interaction assay (ALPHA). It is filed as binding. Particulars: 0.3 nM His tagged PD-L1, 2.5 nM biotinylated Fc-PD-1; 60 minutes at 25° C.; read-out: IC50 PD-L1-PD1. Here is the method:
PD-1/PD-L1 & CTLA/CD80 Biochemical Protein-Protein Interaction Assay
Compounds were tested in biochemical protein-protein interaction assays to determine if they can specifically block the interaction between the extracellular domains of PD-1/PD-L1 or CTLA/CD80. Binding of the protein pairs is measured using a bead based Amplified Luminescent Proximity Homogeneous Assay (ALPHA) platform. Binding of each protein pair results in proximity of the donor and acceptor beads which leads to an increase in ALPHA signal. Disruption of the protein-protein interaction with a test compound results in a decrease in ALPHA signal. Assays are performed in 25 mM Hepes (pH 7.4), 150 mM NaCl, 3.4 mM EDTA, 0.005% Tween 20, and 0.01% BSA. Final protein concentration in the assays were 0.3 nM (His tagged PD-L1), 2.5 nM (biotinylated Fc-PD-1), 1 nM (His tagged CTLA4) and 1 nM (biotinylated CD80). After an assay reaction time of 60 minutes at 25° C., binding was measured with addition of 20 μg/mL ALPHA assay acceptor beads (anti-His coated) and 20 µg/mL ALPHA assay donor beads (streptavidin coated). IC50 values were calculated from the fit of the dose-response curves to a four-parameter equation. Representative data are shown below in Table 3.
Target sequence in this assay (Q9NZQ7 19-238 limits assumed): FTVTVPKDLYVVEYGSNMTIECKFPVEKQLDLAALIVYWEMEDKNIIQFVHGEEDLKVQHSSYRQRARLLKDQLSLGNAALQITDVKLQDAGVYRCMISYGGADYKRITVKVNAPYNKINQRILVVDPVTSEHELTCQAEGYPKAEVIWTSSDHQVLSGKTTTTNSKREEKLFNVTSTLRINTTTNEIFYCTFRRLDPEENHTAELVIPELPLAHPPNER

T2 sequence (Q9NZQ7 19-238 limits assumed): as above
T2 sequence (Q9NZQ7 19-238 limits assumed): as above

`C[C@](CO)(NCc1cc(Cl)c(OCc2cccc(-c3cccc(-c4ccc5c(c4)CNCC5)c3Cl)c2Cl)nc1OCc1cc(C#N)cc(C#N)c1)C(=O)O` [Compound 27] came in with a half-maximal effective concentration (EC50) at PD-1/PD-L1 [1] of 155 nM. In addition, the AC50 at PD-L1 turned out to be 30.6 nM. Besides, the IC50 on PD-1/PD-L1 [2] was 0.312 nM.
For `C[C@@](CO)(NCc1cc(Cl)c(OCc2cccc(-c3cccc(-c4ccc5c(c4)CNCC5)c3Cl)c2Cl)nc1OCc1cc(C#N)cc(C#N)c1)C(=O)O` [Compound 28], the EC50 at PD-1/PD-L1 [1] is 161 nM. Further, on PD-L1, the AC50 worked out at 39.7 nM. Further, on PD-1/PD-L1 [2], the IC50 is 0.367 nM.
Molecule `C[C@](CO)(NCc1cc(Cl)c(OCc2cccc(-c3cccc(-c4ccc5c(c4)CNCC5)c3Cl)c2Cl)nc1OCc1cncc(C#N)c1)C(=O)O` [Compound 29] showed a 50% effective concentration (EC50) at PD-1/PD-L1 [1] of 200 nM. Also, the concentration at half-maximal activity (AC50) at PD-L1 was determined as 31.5 nM. Moreover, the half-maximal inhibitory concentration (IC50) at PD-1/PD-L1 [2] is 0.368 nM.
In the same order, the values of `COc1nc(-c2cccc(-c3cccc(-c4nc5n(n4)CCNC5)c3Cl)c2Cl)ccc1CNC[C@@H]1CCC(=O)N1` [Compound 30] are 148 nM, 690 nM and 0.247 nM.
In the same order, the values of `COc1nc(-c2cccc(-c3cccc(-c4nc5c(s4)CNCC5)c3Cl)c2Cl)ccc1CNCCO` [Compound 31] are 674 nM, 314 nM and 0.431 nM.
At PD-1/PD-L1 [1], `COc1nc(-c2cccc(-c3cccc(-c4cc5c(s4)CCNC5)c3Cl)c2Cl)ccc1CN1CC2(CCC(=O)N2)C1` [Compound 32] showed an EC50 of 288 nM. Moreover, on PD-L1, the AC50 came to 181 nM. Moreover, the 50% inhibitory concentration (IC50) at PD-1/PD-L1 [2] came out at 1.14 nM.
With `COc1nc(-c2cccc(-c3cccc(-c4cc5c(s4)CCNC5)c3Cl)c2Cl)ccc1CNC[C@@H]1CCC(=O)N1` [Compound 33], a half-maximal effect on PD-1/PD-L1 [1] (EC50) was put at 170 nM. For the same molecule, the AC50 at PD-L1 was found to be 145 nM. Also, the concentration for half-maximal inhibition (IC50) on PD-1/PD-L1 [2] came to 1.04 nM.
On PD-1/PD-L1 [1], `COc1nc(-c2cccc(-c3cccc(-c4cc5c(s4)CNCC5)c3Cl)c2Cl)ccc1CNC[C@@H]1CCC(=O)N1` [Compound 34] yielded a 50% effective concentration (EC50) of 163 nM. The AC50 at PD-L1 was determined as 174 nM. Besides, on PD-1/PD-L1 [2], the half-maximal inhibitory concentration (IC50) was determined as 1.13 nM.
In the same order, the values of `COc1nc(-c2cccc(-c3cccc(-c4nc5c(s4)CNCC5)c3Cl)c2Cl)ccc1CNC[C@@H]1CCC(=O)N1` [Compound 35] are 105 nM, 281 nM and 0.814 nM.
Consider `COc1nc(-c2cccc(-c3cccc(-c4nc5c(s4)CCNC5)c3Cl)c2Cl)ccc1CNC[C@@H]1CCC(=O)N1` [Compound 36], for which, on PD-1/PD-L1 [1], the EC50 turned out to be 142 nM. In addition, the half-maximal activity concentration (AC50) at PD-L1 is 256 nM. The IC50 at PD-1/PD-L1 [2] came to 0.588 nM.
